Assay: LUNAR study safety: adverse events per CTCAE version 4.03, safety population
Format: in vivo, human
[1] = Grade 3, nervous system disorders
[2] = Grade 3, renal and urinary disorders
[3] = Grade 3, respiratory, thoracic, and mediastinal disorders
[4] = Grade 3, skin and subcutaneous tissue disorders

Procedure: Safety and treatment data were compiled from all patients who received any study therapy and were analyzed according to the actual treatment received. Analyses were performed using SAS software, version 9.4 (SAS Institute).

SMILES: CC(=O)O[C@@]12CO[C@@H]1C[C@H](O)[C@@]1(C)C(=O)[C@H](O)C3=C(C)[C@@H](OC(=O)[C@H](O)[C@@H](NC(=O)OC(C)(C)C)c4ccccc4)C[C@@](O)([C@@H](OC(=O)c4ccccc4)[C@H]21)C3(C)C [Docetaxel, docetaxel]
- Sepsis (Grade 3): 1 (1.5) no. (%)
- Septic shock (Grade 3): 0 no. (%)
- Skin infection (Grade 3): 0 no. (%)
- Stomatitis (Grade 3): 0 no. (%)
- Subileus (Grade 3): 0 no. (%)
- Thrombocytopenia (Grade 3): 0 no. (%)
- Thyroiditis subacute (Grade 3): 0 no. (%)
- Tumor pain (Grade 3): 0 no. (%)
- Upper respiratory tract infection (Grade 3): 0 no. (%)
- Urinary tract infection (Grade 3): 0 no. (%)
- Urosepsis (Grade 3): 0 no. (%)
- Vomiting (Grade 3): 0 no. (%)
- Weight decreased (Grade 3): 0 no. (%)
- White blood cell count decreased (Grade 3): 5 (7.4) no. (%)
- Brain oedema [1]: 0 no. (%)
- Cauda equina syndrome [1]: 0 no. (%)
- Dysarthria [1]: 0 no. (%)
- Embolic stroke [1]: 0 no. (%)
- Hemiparesis [1]: 1 (1.5) no. (%)
- Motor dysfunction [1]: 0 no. (%)
- Nervous system disorder [1]: 0 no. (%)
- Neurologic neglect syndrome [1]: 1 (1.5) no. (%)
- Neurotoxicity [1]: 0 no. (%)
- Peripheral sensorimotor neuropathy [1]: 2 (2.9) no. (%)
- Quadriparesis [1]: 0 no. (%)
- Seizure [1]: 0 no. (%)
- Syncope [1]: 2 (2.9) no. (%)
- Vocal cord paralysis [1]: 0 no. (%)
- Anxiety (Grade 3, psychiatric disorders): 0 no. (%)
- Confusional state (Grade 3, psychiatric disorders): 0 no. (%)
- Mental status changes (Grade 3, psychiatric disorders): 0 no. (%)
- Acute kidney injury [2]: 0 no. (%)
- Urinary retention [2]: 0 no. (%)
- Acute respiratory failure [3]: 0 no. (%)
- Atelectasis [3]: 2 (2.9) no. (%)
- Bronchial obstruction [3]: 0 no. (%)
- Bronchopleural fistula [3]: 0 no. (%)
- Chronic obstructive pulmonary disease [3]: 1 (1.5) no. (%)
- Cough [3]: 0 no. (%)
- Dyspnoea [3]: 2 (2.9) no. (%)
- Esophago-bronchial fistula [3]: 0 no. (%)
- Hemoptysis [3]: 1 (1.5) no. (%)
- Hypoxia [3]: 2 (2.9) no. (%)
- Interstitial lung disease [3]: 0 no. (%)
- Pleural effusion [3]: 4 (5.9) no. (%)
- Pneumonia aspiration [3]: 0 no. (%)
- Pneumonitis [3]: 1 (1.5) no. (%)
- Pulmonary embolism [3]: 1 (1.5) no. (%)
- Pulmonary hemorrhage [3]: 0 no. (%)
- Respiratory failure [3]: 0 no. (%)
- Alopecia [4]: 1 (1.5) no. (%)
- Dermatitis exfoliative [4]: 0 no. (%)
- Pruritus [4]: 0 no. (%)
- Rash [4]: 0 no. (%)
- Rash erythematous [4]: 0 no. (%)
- Rash maculopapular [4]: 0 no. (%)
- Skin erosion [4]: 0 no. (%)
- Skin reaction [4]: 0 no. (%)
- Skin toxicity [4]: 0 no. (%)
- Deep vein thrombosis (Grade 3, vascular disorders): 0 no. (%)
- Embolism (Grade 3, vascular disorders): 0 no. (%)
- Hypertension (Grade 3, vascular disorders): 0 no. (%)
- Jugular vein thrombosis (Grade 3, vascular disorders): 0 no. (%)
- Peripheral arterial occlusive disease (Grade 3, vascular disorders): 0 no. (%)
- Vena cava embolism (Grade 3, vascular disorders): 0 no. (%)
- Acute myocardial infarction (Grade 4): 0 no. (%)
- Adenocarcinoma of colon (Grade 4): 0 no. (%)
- Alanine aminotransferase increased (Grade 4): 0 no. (%)
- Anemia (Grade 4): 0 no. (%)
- Anemia macrocytic (Grade 4): 0 no. (%)
- Any adverse event (Grade 4): 16 (23.5) no. (%)
- Arthralgia (Grade 4): 0 no. (%)
- Ascites (Grade 4): 0 no. (%)
- Aspergillus infection (Grade 4): 0 no. (%)
- Asthenia (Grade 4): 0 no. (%)
- Atrial tachycardia (Grade 4): 0 no. (%)
- Autoimmune colitis (Grade 4): 0 no. (%)
- Back pain (Grade 4): 0 no. (%)
- Blood bilirubin increased (Grade 4): 0 no. (%)
- Bone pain (Grade 4): 0 no. (%)
- Bronchiolitis (Grade 4): 0 no. (%)
- Bronchitis (Grade 4): 0 no. (%)
- C-reactive protein increased (Grade 4): 0 no. (%)
- Cancer pain (Grade 4): 0 no. (%)
- Cardiac failure congestive (Grade 4): 0 no. (%)
- Cardiac tamponade (Grade 4): 0 no. (%)
- Cardiac ventricular thrombosis (Grade 4): 0 no. (%)
- Cataract (Grade 4): 0 no. (%)
- Chest pain (Grade 4): 0 no. (%)
- Cholangitis (Grade 4): 0 no. (%)
- Cholecystitis (Grade 4): 0 no. (%)
- Cholelithiasis (Grade 4): 0 no. (%)
- Clostridium bacteremia (Grade 4): 0 no. (%)
- Coronary artery disease (Grade 4): 0 no. (%)
- Decreased appetite (Grade 4): 0 no. (%)
- Dehydration (Grade 4): 0 no. (%)
- Diarrhea (Grade 4): 0 no. (%)
- Diverticulitis (Grade 4): 0 no. (%)
- Drug hypersensitivity (Grade 4): 0 no. (%)
- Encephalitis (Grade 4): 0 no. (%)
- Esophagitis (Grade 4): 0 no. (%)
- Euthanasia (Grade 4): 0 no. (%)
- Fatigue (Grade 4): 0 no. (%)
- Febrile neutropenia (Grade 4): 0 no. (%)
- Femoral neck fracture (Grade 4): 0 no. (%)
- Forced expiratory volume decreased (Grade 4): 0 no. (%)
- Gastroenteritis norovirus (Grade 4): 0 no. (%)
- Gastroenteritis salmonella (Grade 4): 0 no. (%)
- General physical health deterioration (Grade 4): 0 no. (%)
- Hematochezia (Grade 4): 0 no. (%)
- Hepatic enzyme increased (Grade 4): 0 no. (%)
- Hip fracture (Grade 4): 0 no. (%)
- Hypercalcemia (Grade 4): 0 no. (%)
- Hyperglycemia (Grade 4): 0 no. (%)
- Hyperkalaemia (Grade 4): 0 no. (%)
- Hypertriglyceridaemia (Grade 4): 0 no. (%)
- Hypoalbuminemia (Grade 4): 0 no. (%)
- Hypocalcaemia (Grade 4): 0 no. (%)
- Hypokalemia (Grade 4): 0 no. (%)
- Hyponatremia (Grade 4): 0 no. (%)
- Ileus (Grade 4): 0 no. (%)
- Infection (Grade 4): 0 no. (%)
- Intestinal dilatation (Grade 4): 0 no. (%)
- Intestinal hemorrhage (Grade 4): 0 no. (%)
- Intestinal perforation (Grade 4): 0 no. (%)
- Large intestine perforation (Grade 4): 0 no. (%)
- Leukopenia (Grade 4): 0 no. (%)
- Liver disorder (Grade 4): 0 no. (%)
- Localized oedema (Grade 4): 0 no. (%)
- Lung abscess (Grade 4): 0 no. (%)
- Lymphocyte count decreased (Grade 4): 0 no. (%)
- Lymphopenia (Grade 4): 0 no. (%)
- Malignant ascites (Grade 4): 0 no. (%)
- Malignant pleural effusion (Grade 4): 0 no. (%)
- Malnutrition (Grade 4): 0 no. (%)
